Experimental data taken from paper PMC8360069, “Prediction and Validation of a Druggable Site on Virulence Factor of Drug Resistant Burkholderia cenocepacia” (Chemistry (Weinheim an Der Bergstrasse, Germany), 2021).

Columns and labels:
Type in all cases: binding
[1] = molecular target: T1, BC2L-C (Burkholderia cenocepacia, UniProt B4EH86); test: ITC; X-ray crystal structure ([…] Å, with Globo H); STD-NMR
T1 construct: gene BCAM0185; N-terminal domain (BC2L-C-nt)

[2] = molecular target: T1, BC2L-C; test: STD-NMR in the presence of Me-α-L-Fuc (no density in soaked crystals)
[3] = molecular target: T1, BC2L-C; test: STD-NMR; thermal shift assay (about +[…] °C)

T1 sequence (B4EH86 entry or part of it): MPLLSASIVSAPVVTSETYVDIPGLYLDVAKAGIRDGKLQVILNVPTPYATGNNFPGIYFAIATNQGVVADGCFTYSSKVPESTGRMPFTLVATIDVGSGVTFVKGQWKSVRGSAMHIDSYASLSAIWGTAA

## Cc1nccn1-c1cccc(CN)c1 [KL3, 3‐(2‐Methyl‐1H‐imidazol‐1‐yl) benzylamine]
[1]
  Kd: 877 µM

## NC(CO)Cc1ccccc1 (stereo not drawn) [KL9]
[2]
  STD-NMR in the presence of Me-α-L-Fuc (no density in soaked crystals): confirming the binding event for the three fragments in the BC2L‐C‐nt/fucose complex

## CO[C@@H]1O[C@@H](C)[C@@H](O)[C@@H](O)[C@@H]1O [Methyl α-L-fucoside]
[3]
  STD-NMR; thermal shift assay (about +2 °C): Me‐α‐L‐Fuc was initially tested alone in the experiment, verifying that it binds BC2L‐C‐nt
